Source: patent US10548899B2, “Quinazolinone and benzotriazinone compounds with cholinergic muscarinin M1 receptor positive allosteric modulator activity” (TAKEDA PHARMACEUTICAL COMPANY LIMITED, priority 2015, dated 2020)
Each block holds one compound with its values, some of them ahead of it.

Target: T1, human M1 receptor (hCHRM1) (Homo sapiens, UniProt P11229)
T1 construct: expressed in transfected cells; host or cells: CHO-K1
T1 sequence (P11229 1-460): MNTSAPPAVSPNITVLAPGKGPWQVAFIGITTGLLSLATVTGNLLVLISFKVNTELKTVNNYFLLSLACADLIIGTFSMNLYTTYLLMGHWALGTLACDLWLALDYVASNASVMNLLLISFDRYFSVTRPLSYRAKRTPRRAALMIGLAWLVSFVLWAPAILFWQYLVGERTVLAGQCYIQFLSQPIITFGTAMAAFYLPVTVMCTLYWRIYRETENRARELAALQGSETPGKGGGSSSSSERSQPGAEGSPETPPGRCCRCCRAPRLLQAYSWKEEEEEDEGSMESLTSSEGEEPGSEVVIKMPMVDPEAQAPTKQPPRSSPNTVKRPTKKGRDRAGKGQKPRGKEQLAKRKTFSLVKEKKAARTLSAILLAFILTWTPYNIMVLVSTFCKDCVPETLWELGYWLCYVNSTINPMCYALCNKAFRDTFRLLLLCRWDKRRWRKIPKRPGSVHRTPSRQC
Test: Measurement of M1 receptor positive allosteric modulator (M1PAM) activity (calcium fluorescence, Fluo-4, FDSS)
Assay type: cell-based
Details: for activity (%) at 10 μM: 10 μM test compound, acetylcholine EC20 (final 0.8 nM) present, 100% = acetylcholine 1 μM, 0% = DMSO, CHO-K1 hCHRM1 cells; for EC50: inflection point of concentration-dependent curve, CHO-K1 cells stably expressing hCHRM1, in presence of acetylcholine at EC20 concentration (final 0.8 nM), read-out: IP value
Description: Measurement of M1 receptor positive allosteric modulator (M1PAM) activity
The activity of a test compound in the presence of acetylcholine at EC20 concentration (final concentration 0.8 nM), which affords an action corresponding to about 20% of the maximum activity, was measured as PAM activity. The method is as follows. CHO-K1 cells stably expressing a human M1 receptor (hCHRM1) were plated on a 384-well black clear bottom plate (BD Falcon) at 5,000 cells/well, and cultured in an incubator at 37° C., 5% CO2 for 1 day. The medium in the cell plate was removed, and assay buffer A containing a calcium indicator (Recording medium (DOJINDO LABORATORIES), 0.1% BSA (Wako Pure Chemical Industries, Ltd.), 2.5 μg/mL Fluo-4 AM (DOJINDO LABORATORIES), 0.08% Pluronic F127 (DOJINDO LABORATORIES) and 1.25 mM probenecid (DOJINDO LABORATORIES) were added at 30 μL/well. The cells were left standing in the incubator at 37° C., 5% CO2 for 30 min, and further left standing at room temperature for 30 min. A test compound prepared by diluting with assay buffer B (HESS (Invitrogen), 20 mM HEPES (Invitrogen), 0.1% BSA) containing 3.2 nM acetylcholine was added at 10 μL/well, and the fluorescence was measured by FDSS/μcell (Hamamatsu Photonics K.K.) for 1 min every for 1 second. With the definition that the amount of change in the fluorescence on addition of acetylcholine (final concentration 1 μM) is 100% and that on addition of DMSO instead of a test compound is 0%, the activity (%) of the test compound was calculated, and the inflection point in the concentration-dependent curve of the test compound was calculated as IP values.

SMILES: Cc1c(Cc2ccc(-c3cnn(C)c3)nc2)cc2c(=O)n(CC3CCCO3)nnc2c1C (stereo not shown) [Example 39, 7,8-dimethyl-6-((6-(1-methyl-1H-pyrazol-4-yl)pyridin-3-yl)methyl)-3-(tetrahydrofuran-2-ylmethyl)-1,2,3-benzotriazin-4(3H)-one]
- activity (%) at 10 μM: 97%
- EC50: 85 nM

SMILES: Cc1c(Cc2ccc(-n3cccn3)cc2)cc2c(=O)n([C@H]3COCC[C@@H]3O)nnc2c1C [Example 41, 3-((3S,4S)-4-hydroxytetrahydro-2H-pyran-3-yl)-7,8-dimethyl-6-(4-(1H-pyrazol-1-yl)benzyl)-1,2,3-benzotriazin-4(3H)-one]
- activity (%) at 10 μM: 101%
- EC50: 29 nM

SMILES: Cc1c(Cc2ccc(-n3cccn3)cc2)cc2c(=O)n([C@H]3COCC[C@@H]3O)nnc2c1C [Example 43, 3-((3S,4S)-4-hydroxytetrahydro-2H-pyran-3-yl)-7,8-dimethyl-6-(4-(1H-pyrazol-1-yl)benzyl)-1,2,3-benzotriazin-4(3H)-one]
- activity (%) at 10 μM: 100%
- EC50: 14 nM

SMILES: Cc1c(Cc2ccc(-c3ccn(C)n3)nc2)cc2c(=O)n(CC3CCCO3)nnc2c1Cl (stereo not shown) [Example 45, 8-chloro-7-methyl-6-((6-(1-methyl-1H-pyrazol-3-yl)pyridin-3-yl)methyl)-3-(tetrahydrofuran-2-ylmethyl)1,2,3-benzotriazin-4(3H)-one]
- activity (%) at 10 μM: 95%
- EC50: 25 nM

SMILES: Cc1c(Cc2ccc(-c3ccn(C)n3)cc2)cc2c(=O)n([C@H]3COCC[C@@H]3O)nnc2c1C [Example 47, 3-((3S,4S)-4-hydroxytetrahydro-2H-pyran-3-yl)-7,8-dimethyl-6-(4-(1-methyl-1H-pyrazol-3-yl)benzyl)-1,2,3-benzotriazin-4(3H)-one]
- activity (%) at 10 μM: 95%
- EC50: 38 nM

SMILES: Cc1cc2nnn([C@H]3COCC[C@@H]3O)c(=O)c2cc1Cc1ccc(-c2ccn(C)n2)cc1 [Example 48, 3-((3S,4S)-4-hydroxytetrahydro-2H-pyran-3-yl)-7-methyl-6-(4-(1-methyl-1H-pyrazol-3-yl)benzyl)-1,2,3-benzotriazin-4(3H)-one]
- activity (%) at 10 μM: 98%
- EC50: 59 nM

SMILES: Cc1c(Cc2ccc(-n3cccn3)cc2)cc2c(=O)n([C@H]3COCC[C@@H]3O)nnc2c1F [Example 49, 8-fluoro-3-((3S,4S)-4-hydroxytetrahydro-2H-pyran-3-yl)-7-methyl-6-(4-(1H-pyrazol-1-yl)benzyl)-1,2,3-benzotriazin-4(3H)-one]
- activity (%) at 10 μM: 97%
- EC50: 18 nM

Continued by falling EC50, values first:

- activity (%) at 10 μM: 100%
- EC50: 32 nM
SMILES: Cc1c(Cc2ccc(-n3cccn3)nc2)cc2c(=O)n([C@H]3COCC[C@@H]3O)nnc2c1C [Example 44, 3-[(3S,4S)-4-hydroxytetrahydro-2H-pyran-3-yl]-7,8-dimethyl-6-{[6-(1H-pyrazol-1-yl)pyridin-3-yl]methyl}-1,2,3-benzotriazin-4(3H)-one]

- activity (%) at 10 μM: 96%
- EC50: 23 nM
SMILES: Cc1c(Cc2ccc(Cl)nc2)cc2c(=O)n([C@H]3CCCC[C@@H]3O)cnc2c1C [Example 54, 6-((6-chloropyridin-3-yl)methyl)-3-((1S,2S)-2-hydroxycyclohexyl)-7,8-dimethylquinazolin-4(3H)-one]

- activity (%) at 10 μM: 98%
- EC50: 15 nM
SMILES: Cc1c(Cc2ccc(-n3cccn3)cc2)cc2c(=O)n([C@H]3CCOC[C@@H]3O)nnc2c1C [Example 56, 3-((3R,4S)-3-hydroxytetrahydro-2H-pyran-4-yl)-7,8-dimethyl-6-(4-(1H-pyrazol-1-yl)benzyl)-1,2,3-benzotriazin-4(3H)-one]

- activity (%) at 10 μM: 95%
- EC50: 14 nM
SMILES: Cc1c(Cc2ccc(-c3ccn(C)n3)nc2)cc2c(=O)n([C@H]3COCC[C@@H]3O)nnc2c1C [Example 58, 3-((3S,4S)-4-hydroxytetrahydro-2H-pyran-3-yl)-7,8-dimethyl-6-((6-(1-methyl-1H-pyrazol-3-yl)pyridin-3-yl)methyl)-1,2,3-benzotriazin-4(3H)-one]

- activity (%) at 10 μM: 99%
- EC50: 7.4 nM
SMILES: Cc1c(Cc2ccc(-n3cccn3)cc2)cc2c(=O)n([C@H]3CCOC[C@@H]3O)cnc2c1C [Example 55, 3-((3R,4S)-3-hydroxytetrahydro-2H-pyran-4-yl)-7,8-dimethyl-6-(4-(1H-pyrazol-1-yl)benzyl)quinazolin-4(3H)-one]

- activity (%) at 10 μM: 98%
- EC50: 7.3 nM
SMILES: Cc1c(Cc2ccc(-c3ccn(C)n3)nc2)cc2c(=O)n([C@H]3CCCC[C@@H]3O)cnc2c1C [Example 57, 3-((1S,2S)-2-hydroxycyclohexyl)-7,8-dimethyl-6-((6-(1-methyl-1H-pyrazol-3-yl)pyridin-3-yl)methyl)quinazolin-4(3H)-one]

- activity (%) at 10 μM: 94%
- EC50: 4.8 nM
SMILES: Cc1c(Cc2ccc(-c3cnn(C)c3)nc2)cc2c(=O)n([C@H]3CCCC[C@@H]3O)cnc2c1C [Example 59, 3-((1S,2S)-2-hydroxycyclohexyl)-7,8-dimethyl-6-((6-(1-methyl-1H-pyrazol-4-yl)pyridin-3-yl)methyl)quinazolin-4(3H)-one]
